The values below come from PMC12547551, “Lanostane–Meroterpene Conjugates with Unusual Aryl Ether Linkage and a Lanostane Dimer from Artificially Cultivated Fruiting Bodies of Ganoderma cf. hochiminhense” (ACS Omega, 2025).

One assay concerns Plasmodium falciparum K1. In words: Antiplasmodial assay, microculture radioisotope technique. Type of assay: cell-based. The settings on record: P. falciparum K1, standard drug.
Assay [1] relates to Mycobacterium tuberculosis H37Ra. In words: Antimycobacterial activity, green fluorescent protein detection method. Type of assay: cell-based. The following applies: M. tuberculosis H37Ra, standard drugs.
The test system of assay [2] is MCF-7 (breast cancer) cells. Nature of the assay: Cytotoxicity against MCF-7 cells, resazurin fluorescent method. Type of assay: cell-based. The following applies: Homo sapiens, MCF7. A general note: The colour change of resazurin is a common sign of viable cells or microbes.
Assay [3] deals with NCI-H187 (small-cell lung cancer) cells. In words: Cytotoxicity against NCI-H187 cells, resazurin fluorescent method. Type of assay: cell-based. The settings on record: Homo sapiens.
In another assay the test system is Vero cells. Nature of the assay: Cytotoxicity to Vero cells, green fluorescent protein detection method. Type of assay: cell-based, African green monkey. The settings on record: Chlorocebus sabaeus; nonmalignant Vero cells.

≈ marks a conversion by molar mass, not a printed value. A value given as a limit tells only on which side of the number the result lay.

As usually defined, the IC50 is the concentration that inhibits the measured activity by half. Read a high IC50 as weaker potency in that assay. `C[C@H]1[C@@H](O)O[C@@H]2O[C@@]3(C)CC[C@H]4[C@H](C)CC[C@@H]1[C@@]24OO3` [Dihydroartemisinin]: the IC50 with Plasmodium falciparum K1 came out at 0.0014 µM.

As a reminder, the MIC is the lowest concentration found to suppress growth. The low end stands for inhibition by little substance, the high end for a need for much substance. Consider `CO[C@H]1/C=C/O[C@@]2(C)Oc3c(C)c(O)c4c(O)c(c(/C=N/N5CCN(C)CC5)c(O)c4c3C2=O)NC(=O)/C(C)=C\C=C\[C@H](C)[C@H](O)[C@@H](C)[C@@H](O)[C@@H](C)[C@H](OC(C)=O)[C@@H]1C` [Rifampicin], for which inhibition of growth in assay [1] (MIC) required 0.025 µg/mL (≈ 0.0304 µM).

In turn, `CCN(CC)CCCC(C)Nc1ccnc2cc(Cl)ccc12` (centres unmarked) [chloroquine] gave an IC50 with Plasmodium falciparum K1 of 0.58 µM.

For `COc1cccc2c1C(=O)c1c(O)c3c(c(O)c1C2=O)C[C@@](O)(C(=O)CO)C[C@@H]3O[C@H]1C[C@H](N)[C@H](O)[C@H](C)O1` [doxorubicin, reference compound], the IC50 in assay [2] was determined as 11 µM; in assay [3], 0.15 µM.

As to `Cc1c2ccncc2c(C)c2c1[nH]c1ccccc12` [ellipticine, reference compound], the IC50 in assay [3] is 7.6 µM; with Vero cells, 6 µM.

With `CC(C)=CCC/C(=C/Cc1cc(O)ccc1O)C(=O)O` [fornicin F (10), Fornicin F], the IC50 in assay [2] was > 181 µM; in assay [3], 134 µM; in the assay on Vero cells, > 181 µM.

For the compound `CCC(=O)CC[C@@]1(C)OC[C@]23[C@@H](O)C(=O)C4=C(C(=O)C[C@@H]([C@@]5(C)CO5)[C@]4(C)CCC(=O)O[C@@H](CC[C@@H](C)[C@H]4CC[C@@]5(C)C6=CC[C@H]7C(C)(C)C(=O)CC[C@]7(C)C6=CC[C@]45C)C(C)(C)O)[C@]2(C)CC[C@@H]31` [ganohochimate A (9), Ganohochimate A], the IC50 was > 52 µM in assay [2], > 52 µM in assay [3] and 52 µM with Vero cells.

Consider `CC(C)=CCCC(C)=CCCC(=CCc1cc(O)ccc1OC(C)(C)C(O)CCC(C)C1CCC2(C)C3=CCC4C(C)(C)C(=O)CCC4(C)C3=CCC12C)C(=O)O` (centres unmarked) [ganohochimin A (1), Ganohochimin A], for which the values for the IC50 (in assay [2]; in assay [3]; with Vero cells) were > 64 µM, 19 µM and 17 µM, respectively.

Take `CC(C)=CCC/C(C)=C/CC/C(=C/Cc1cc(O)ccc1OC(C)(C)[C@@H](O)CC[C@@H](C)[C@H]1CC[C@@]2(C)C3=CC[C@H]4C(C)(C)[C@@H](O)CC[C@]4(C)C3=CC[C@]12C)C(=O)O` [ganohochimin B (2), Ganohochimin B]: the IC50 in assay [2] is > 64 µM; in assay [3], 33 µM; in the assay on Vero cells, 28 µM.

For `CC(C)=CCC/C(C)=C/CC/C(=C/Cc1cc(OC(C)(C)[C@@H](O)CC[C@@H](C)[C@H]2CC[C@@]3(C)C4=CC[C@H]5C(C)(C)C(=O)CC[C@]5(C)C4=CC[C@]23C)ccc1O)C(=O)O` [ganohochimin C (3), Ganohochimin C], the 50% inhibitory concentration (IC50) in assay [2] is > 64 µM; in assay [3] it was 21 µM; in the assay with Vero cells it was 30 µM.

For the compound `CC(C)=CCC/C(C)=C/CC/C(=C/Cc1cc(OC(C)(C)[C@@H](O)CC[C@@H](C)[C@H]2CC[C@@]3(C)C4=CC[C@H]5C(C)(C)[C@@H](O)CC[C@]5(C)C4=CC[C@]23C)ccc1O)C(=O)O` [ganohochimin D (4), Ganohochimin D], the IC50 is > 64 µM in assay [2], 16 µM in assay [3] and 28 µM in the assay on Vero cells.

Turning to `CC(C)=CCC/C(=C/Cc1cc(O)ccc1OC(C)(C)[C@@H](O)CC[C@@H](C)[C@H]1CC[C@@]2(C)C3=CC[C@H]4C(C)(C)C(=O)CC[C@]4(C)C3=CC[C@]12C)C(=O)O` [ganohochimin E (5), Ganohochimin E], the IC50 in assay [2] was > 70 µM; in assay [3], 21 µM; in the assay on Vero cells it was 13 µM.

Consider `CC(C)=CCC/C(=C/Cc1cc(O)ccc1OC(C)(C)[C@@H](O)CC[C@@H](C)[C@H]1CC[C@@]2(C)C3=CC[C@H]4C(C)(C)[C@@H](O)CC[C@]4(C)C3=CC[C@]12C)C(=O)O` [ganohochimin F (6), Ganohochimin F], for which the 50% inhibitory concentration (IC50) in assay [2] is > 70 µM; in assay [3], 7.7 µM; in the assay on Vero cells it was 6.3 µM.

As for `CC(C)=CCC/C(=C/Cc1cc(OC(C)(C)[C@@H](O)CC[C@@H](C)[C@H]2CC[C@@]3(C)C4=CC[C@H]5C(C)(C)C(=O)CC[C@]5(C)C4=CC[C@]23C)ccc1O)C(=O)O` [ganohochimin G (7), Ganohochimin G], the values for the IC50 (in assay [2]; in assay [3]; with Vero cells) were > 70 µM, 21 µM and 14 µM, respectively.

`CC(C)=CCC/C(=C/Cc1cc(OC(C)(C)[C@@H](O)CC[C@@H](C)[C@H]2CC[C@@]3(C)C4=CC[C@H]5C(C)(C)[C@@H](O)CC[C@]5(C)C4=CC[C@]23C)ccc1O)C(=O)O` [ganohochimin H (8), Ganohochimin H]: the IC50 in assay [2] was > 70 µM; in assay [3], 18 µM; with Vero cells it was 24 µM.

Compound `NNC(=O)c1ccncc1` [isoniazid] had an MIC in assay [1] of 0.375 µg/mL (≈ 2.73 µM).
